In patent US20250270222A1, “AP2 ASSOCIATED KINASE 1 INHIBITORS AND USES THEREOF” (Satellos Bioscience Inc., priority 2023, published 2025):

Experiments:
[1] = biological target: AAK1 (amino acids T27-A365) (Homo sapiens (Human), UniProt Q2M2I8); test: AAK1 pSENs assay; type: biochemical; settings: ratio of AAK1 pSENs activity to GAK pSENs activity
Method in brief: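 Untagged, biotinylated E. coli-expressed AAK1 at 20 nM preincubated with compound 15 min at 25° C in HEPES pH 7.5 buffer with 10 mM MgCl2 and 1 mM DTT. Reaction started with AQT0759 and ATP, added as 30 uM and 70 uM solutions in equal volume.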

[2] = biological target: GAK (amino acids Q25-N335) (Homo sapiens (Human), UniProt O14976); test: GAK pSENs assay; type: biochemical
Chain of GAK (amino acids Q25-N335) (O14976 25-335): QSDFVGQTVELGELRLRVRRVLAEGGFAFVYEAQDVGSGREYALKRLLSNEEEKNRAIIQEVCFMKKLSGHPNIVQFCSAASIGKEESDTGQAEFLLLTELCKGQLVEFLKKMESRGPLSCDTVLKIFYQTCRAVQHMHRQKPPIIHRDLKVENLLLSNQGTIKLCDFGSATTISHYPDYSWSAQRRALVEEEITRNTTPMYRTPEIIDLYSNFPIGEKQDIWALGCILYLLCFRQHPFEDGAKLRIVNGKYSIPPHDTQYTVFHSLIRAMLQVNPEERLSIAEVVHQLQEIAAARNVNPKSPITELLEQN
Method: The recombinant proteins were independently expressed in Esherichia coli BL21(DE3) cells cultured in Luria-Bertani (LB) medium until OD600 reached 0.6-0.8, then cooled to 15° C., and supplemented with 0.5 mM isopropyl 1-thio-D-galactopyranoside (IPTG) induce protein expression 16 h. Cells were harvested and resuspended in lysis buffer (50 mM HEPES pH 7.5, 500 mM NaCl, 5 mM imidazole, 5% glycerol, 0.5 mM Tris (2-carboxyethyl) phosphine (TCEP), cOmplete Protease Inhibitor Tablet (Roche)) and lysed by microfluidics high pressure homogenizer (UH-06, Union-Biotech). Proteins were purified using Ni-Affinity chromatography (His FF column, Bestchrom) and eluted stepwise in binding buffer with 20-300 mM imidazole. Removal of the hexahistidine tag was performed at 4° C. overnight using recombinant TEV protease and reacted with BirA to obtain the corresponding biotinylated-AAK1. BIKE or GAK proteins. Further separated in the reverse Strep column (Strep-Tactin® XT, IBA). The Biotin elution sample was collected containing untagged biotinylated protein was then purified by Ion-exchange chromatography (Mono Q 10/100 GL, Cytiva) and Size-exclusion chromatography (HiLoad 16/600 Superdex 200 pg, Cytiva). The pure protein was stored in a storage buffer 50 mM HEPES (pH 7.5), 300 mM NaCl, 5% glycerol at −80° C. Protein were characterized by SDS-PAGE. LC-MS and aSEC.
This example describes one illustrative method for determining the IC50 of the compounds of the present invention against GAK (amino acids Q25-N335).

Chain of AAK1 (amino acids T27-A365) (Q2M2I8 27-365): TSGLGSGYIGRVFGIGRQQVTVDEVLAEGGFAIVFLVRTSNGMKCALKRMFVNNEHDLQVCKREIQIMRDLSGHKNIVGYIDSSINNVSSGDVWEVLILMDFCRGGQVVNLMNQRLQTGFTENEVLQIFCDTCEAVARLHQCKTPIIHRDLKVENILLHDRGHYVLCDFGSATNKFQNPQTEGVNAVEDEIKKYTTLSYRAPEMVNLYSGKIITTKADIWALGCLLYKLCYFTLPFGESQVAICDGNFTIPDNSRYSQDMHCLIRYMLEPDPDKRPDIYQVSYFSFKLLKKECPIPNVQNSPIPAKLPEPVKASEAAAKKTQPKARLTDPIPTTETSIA

AAK1:GAK pSENs Selectivity [1] | IC50 [2] [µM] | Compound
A (A: ≤0.015) | > 1.5 | CNCCN1C[C@@H](OC(=O)N2CCN(c3ccn4ncc(-c5cccnc5OC5CC5)c4n3)CC2)CC1=O [Compound I-36, (S)-1-(2-(methylamino)ethyl)-5-(oxopyrrolidin-3-yl)-4-(3-(2-cyclopropoxypyridin-3-yl)pyrazolo[1,5-a]pyrimidin-5-yl)piperazine-1-carboxylate]
A (A: ≤0.015) | > 1.5 | O=C1C[C@H](OC(=O)N2CCN(c3ccn4ncc(-c5cccnc5OC5CC5)c4n3)CC2)CN1CCO [Compound I-38, [(3S)-1-(2-Hydroxyethyl)-5-oxo-pyrrolidin-3-yl]-4-[3-[2-(cyclopropoxy)-3-pyridyl]pyrazolo[1,5-a]pyrimidin-5-yl]piperazine-1-carboxylate]
A (A: ≤0.015) | > 1.5 | C[C@@H]1CN(c2ccn3ncc(-c4cccnc4OC4CC4)c3n2)CCN1C(=O)O[C@@H]1CNC(=O)C1 [Compound I-39, [(3S)-5-oxopyrrolidin-3-yl]-(2R)-4-[3-[2-(cyclopropoxy)-3-pyridyl]pyrazolo[1,5-a]pyrimidin-5-yl]-2-methyl-piperazine-1-carboxylate]
A (A: ≤0.015) | > 1.5 | C[C@@]1(OC(=O)N2CCN(c3ccn4ncc(-c5cccnc5OC5CC5)c4n3)CC2)CCN(CCO)C1 [Compound I-52, [(3R)-1-(2-hydroxyethyl)-3-methyl-pyrrolidin-3-yl]-4-[3-[2-(cyclopropoxy)-3-pyridyl]pyrazolo[1,5-a]pyrimidin-5-yl]piperazine-1-carboxylate]
A (A: ≤0.015) | > 1.5 | COC(=O)N1CC(Oc2ncccc2-c2cnn3ccc(N4CCN(C(=O)O[C@@H]5CNC(=O)C5)CC4)nc23)C1 [Compound I-58, [(3S)-5-oxopyrrolidin-3-yl]-4-[3-[2-(1-methoxycarbonylazetidin-3-yl)oxy-3-pyridyl]pyrazolo[1,5-a]pyrimidin-5-yl]piperazine-1-carboxylate]
A (A: ≤0.015) | > 1.5 | CC(=O)N1CC(Oc2ncccc2-c2cnn3ccc(N4CCN(C(=O)O[C@@H]5CNC(=O)C5)CC4)nc23)C1 [Compound I-59, (S)-5-oxopyrrolidin-3-yl 4-(3-(2-((1-acetylazetidin-3-yl)oxy)pyridin-3-yl)pyrazolo[1,5-a]pyrimidin-5-yl)piperazine-1-carboxylate]
C (C: 0.076-0.15) | > 1.5 | CN(CCNc1ccn2ncc(-c3cccnc3OC3CC3)c2n1)C(=O)O[C@@H]1CNC(=O)C1 [Compound I-60]
A (A: ≤0.015) | > 1.5 | CC(=O)N1CC(Oc2ncccc2-c2cnn3ccc(NCCN(C)C(=O)OC(C)(C)C)nc23)C1 [Compound I-63, Tert-butyl (2-((3-(2-((1-acetylazetidin-3-yl)oxy)pyridin-3-yl)pyrazolo[1,5-a]pyrimidin-5-yl)amino)ethyl)(methyl)carbamate]
A (A: ≤0.015) | > 1.5 | COC(=O)N1CC(Oc2ncccc2-c2cnn3ccc(NCCN(C)C(=O)OC(C)(C)C)nc23)C1 [Compound I-64]
A (A: ≤0.015) | > 1.5 | COc1ncccc1-c1cnn2ccc(N3CCN(C(=O)O[C@H]4CO[C@H]5OCC[C@H]54)CC3)nc12 [Compound I-65, (3R,3aS,6aR)-hexahydrofuro[2,3-b]furan-3-yl 4-(3-(2-methoxypyridin-3-yl)pyrazolo[1,5-a]pyrimidin-5-yl)piperazine-1-carboxylate]
A (A: ≤0.015) | > 1.5 | COc1ccccc1-c1cnn2ccc(N3CCN(C(=O)O[C@H]4CO[C@H]5OCC[C@H]54)CC3)nc12 [Compound I-69, (3R,3aS,6aR)-hexahydrofuro[2,3-b]furan-3-yl 4-(3-(2-methoxyphenyl)pyrazolo[1,5-a]pyrimidin-5-yl)piperazine-1-carboxylate]
A (A: ≤0.015) | > 1.5 | COC(=O)N1CC(Oc2ncccc2-c2cnn3ccc(N4CCN(C(=O)O[C@@H]5CC(=O)N(C)C5)CC4)nc23)C1 [Compound I-83, [(3R)-1-methyl-5-oxo-pyrrolidin-3-yl]4-[3-[2-(1-methoxycarbonylazetidin-3-yl)oxy-3-pyridyl]pyrazolo[1,5-a]pyrimidin-5-yl]piperazine-1-carboxylate]
A (A: ≤0.015) | > 1.5 | CN1C[C@@H](OC(=O)N2CCN(c3ccn4ncc(-c5cc(F)cnc5OC5CC5)c4n3)CC2)CC1=O [Compound I-86]
A (A: ≤0.015) | > 1.5 | COCCN1C[C@@H](OC(=O)N2CCN(c3ccn4ncc(-c5cc(F)cnc5OC5CC5)c4n3)CC2)CC1=O [Compound I-89]
A (A: ≤0.015) | > 1.5 | CN1C[C@@H](OC(=O)N2CCN(c3nc4c(-c5cccnc5OC5CC5)cnn4cc3F)CC2)CC1=O [Compound I-109, [(3S)-1-methyl-5-oxo-pyrrolidin-3-yl]4-[3-[2-(cyclopropoxy)-3-pyridyl]-6-fluoro-pyrazolo[1,5-a]pyrimidin-5-yl]piperazine-1-carboxylate]

Compound | AAK1:GAK pSENs Selectivity [1] | IC50 [2] [µM]
CC(C)(C)OC(=O)N1CC(Oc2ncccc2-c2cnn3ccc(N4CCN(C(=O)O[C@@H]5CNC(=O)C5)CC4)nc23)C1 [Compound I-42, [(3S)-5-Oxopyrrolidin-3-yl]4-[3-[2-(1-tert-butoxycarbonylazetidin-3-yl)oxy-3-pyridyl]pyrazolo[1,5-a]pyrimidin-5-yl]piperazine-1-carboxylate] | A (A: ≤0.015) | > 1.5
CN1CC[C@@](C)(OC(=O)N2CCN(c3ccn4ncc(-c5cccnc5OC5CC5)c4n3)CC2)C1 [Compound I-50, [(3R)-1,3-dimethylpyrrolidin-3-yl]-4-[3-[2-(cyclopropoxy)-3-pyridyl]pyrazolo[1,5-a]pyrimidin-5-yl]piperazine-1-carboxylate] | A (A: ≤0.015) | > 1.5
CN(CCNc1ccn2ncc(-c3cccnc3OC3CN(C(=O)OC(C)(C)C)C3)c2n1)C(=O)OC(C)(C)C [Compound I-62, Tert-butyl 3-[[3-[5-[2-[tert-butoxycarbonyl(methyl)amino]ethylamino]pyrazolo[1,5-a]pyrimidin-3-yl]-2-pyridyl]oxy]azetidine-1-carboxylate] | A (A: ≤0.015) | > 1.5
[2H]C1([2H])N(C(=O)O[C@@H]2CNC(=O)C2)C([2H])([2H])C([2H])([2H])N(c2ccn3ncc(-c4cccnc4OC4CC4)c3n2)C1([2H])[2H] [Compound I-72, [(3S)-5-oxopyrrolidin-3-yl]4-[3-[2-(cyclopropoxy)-3-pyridyl]pyrazolo[1,5-a]pyrimidin-5-yl]-2,2,3,3,5,5,6,6-octadeuterio-piperazine-1-carboxylate] | A (A: ≤0.015) | > 1.5
COC(=O)N1CC(Oc2ncccc2-c2cnn3ccc(N4CCN(C(=O)O[C@@H]5CC(=O)N(CCO)C5)CC4)nc23)C1 [Compound I-84, [(3R)-1-(2-hydroxyethyl)-5-oxo-pyrrolidin-3-yl]4-[3-[2-(1-methoxycarbonylazetidin-3-yl)oxy-3-pyridyl]pyrazolo[1,5-a]pyrimidin-5-yl]piperazine-1-carboxylate] | B (B: 0.016-0.075) | > 1.5
